Results published in patent US11464770B2, “Anticancer pharmaceutical composition” (NATIONAL CANCER CENTER, priority 2016, dated 2022).
Read-outs that look alike come from different tables or passages of the source.

How the values were obtained:
[1] = test system: blood cancer cell lines (e.g. HL-60, Jurkat, Raji, Ramos, Daudi, MOLT-4); test: Cell based assay, cell viability (CellTiter-Glo), blood cancer cell lines; details: Homo sapiens
Outline: (§1)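 Viability measured by ATP luminescence following 72 h treatment over a 0–2 μM final concentration range.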

liver cancer cell lines = test: Cell based assay, cell viability (CellTiter-Glo), liver cancer cell lines; details: Homo sapiens, SK-HEP1; SK-HEP-1 cell line
Outline: as §1

renal cancer cell lines = test: Cell based assay, cell viability (CellTiter-Glo), renal cancer cell lines; details: Homo sapiens; ACHN cells
Outline: as §1

[2] = test system: cervical carcinoma cell lines; test: Cell based assay, cell viability (CellTiter-Glo), cervical carcinoma cell lines; details: Homo sapiens; HeLa cells
[3] = test system: prostate cancer cell lines (e.g. DU145/TXR); test: Cell based assay, cell viability (CellTiter-Glo), prostate cancer cell lines; details: Homo sapiens, 72 hours treatment, final concentration 0 to 2 μM
Outline: as §1

[4] = test system: RT4: human urinary bladder transitional cell papilloma; test: Cell based assay, cytotoxicity in RT4 papilloma cells (selectivity); details: Homo sapiens, RT-4; RT4 cells
[5] = MV4-11, blood cancer cell line MV-4-11, 72 hours, read-out: IC50, MV-4-11
[6] = blood cancer cell line Daudi, 72 hours, read-out: IC50, Daudi
[7] = blood cancer cell line HL-60, 72 hours, read-out: IC50, HL-60
[8] = blood cancer cell line Jurkat, 72 hours, read-out: IC50, Jurkat
[9] = blood cancer cell line MOLT-4, 72 hours, read-out: IC50, MOLT-4
[10] = blood cancer cell line Raji, 72 hours, read-out: IC50, Raji
[11] = blood cancer cell line Ramos (RA 1), 72 hours, read-out: IC50, Ramos (RA 1)
[12] = blood cancer cell line U-937, 72 hours, read-out: IC50, U-937
[13] = CWR22 cells, read-out: IC50, prostate cancer cell line CWR22
[14] = DU-145, DU145 cells, read-out: IC50, prostate cancer cell line DU145
[15] = LNcap cells, read-out: IC50, prostate cancer cell line LNcap
[16] = PC-3 cells, read-out: IC50, prostate cancer cell line PC-3
[17] = DU-145, DU145/TXR cells, read-out: IC50, prostate cancer cell line DU145/TXR

IC50 [1, 5] [nM] | IC50 [1, 6] [nM] | IC50 [1, 7] [nM] | IC50 [1, 8] [nM] | IC50 [1, 9] [nM] | IC50 [1, 10] [nM] | IC50 [1, 11] [nM] | IC50 [1, 12] [nM] | IC50 (liver cancer cell lines) [nM] | IC50 (renal cancer cell lines) [nM] | IC50 [2] [µM] | IC50 [3, 13] [nM] | IC50 [3, 14] [nM] | IC50 [3, 15] [nM] | IC50 [3, 16] [nM] | IC50 [3, 17] [nM] | SMILES | IC50 [4] [µM]
1400 | > 2000 | 1720 | 1080 | 1440 | 1180 | 1670 | 1050 | 1030 | > 2000 | > 10 | 1770 | 1730 | 1550 | 1460 | – | CC(=O)c1c([S+]([O-])Cc2ccc(F)cc2F)[nH]c2c(Br)ccc(Cl)c2c1=O (stereo not shown) [Compound 29, 3-acetyl-8-bromo-5-chloro-2-((2,4-difluorobenzyl)sulfinyl)quinolin-4(1H)-one] | > 10
> 2000 | 1650 | 1930 | 940 | 1350 | 1100 | 1830 | > 2000 | – | > 2000 | > 10 | 1590 | 1440 | 1640 | 1410 | 930 | CC(=O)c1c([S+]([O-])Cc2ccc(F)c(Cl)c2)[nH]c2c(Br)ccc(Cl)c2c1=O (stereo not shown) [Compound 31, 3-acetyl-8-bromo-5-chloro-2-((3-chloro-4-fluorobenzyl)sulfinyl)quinolin-4(1H)-one] | > 10
> 2000 | > 2000 | > 2000 | > 2000 | > 2000 | > 2000 | > 2000 | > 2000 | 1720 | > 2000 | > 10 | > 2000 | > 2000 | – | – | 1590 | CC(=O)c1c(S(=O)(=O)Cc2ccccc2)[nH]c2c(Br)ccc(Cl)c2c1=O [Compound 34, 3-acetyl-2-(benzylsulfonyl)-8-bromo-5-chloroquinolin-4(1H)-one] | > 10
1980 | 1800 | 1730 | 1130 | 1470 | 1160 | 1930 | > 2000 | 940 | > 2000 | > 10 | 1580 | 1600 | 1980 | 1490 | 1000 | CC(=O)c1c([S+]([O-])Cc2cc(Cl)ccc2Cl)[nH]c2c(Br)ccc(Cl)c2c1=O (stereo not shown) [Compound 44, 3-acetyl-8-bromo-5-chloro-2-((2,5-dichlorobenzyl)sulfinyl)quinolin-4(1H)-one] | > 10
> 2000 | > 2000 | > 2000 | > 2000 | > 2000 | > 2000 | > 2000 | > 2000 | 1310 | > 2000 | > 10 | > 2000 | > 2000 | > 2000 | > 2000 | 1560 | CC(=O)c1c([S+]([O-])Cc2cc(F)cc(F)c2)[nH]c2c(Br)ccc(Cl)c2c1=O (stereo not shown) [Compound 46, 3-acetyl-8-bromo-5-chloro-2-((3,5-difluorobenzyl)sulfinyl)quinolin-4(1H)-one] | > 10
> 2000 | > 2000 | > 2000 | 1200 | 1660 | 1410 | > 2000 | > 2000 | 1350 | > 2000 | > 10 | > 2000 | 1770 | > 2000 | 1600 | 1280 | CC(=O)c1c([S+]([O-])Cc2cccc(F)c2)[nH]c2c(Br)ccc(Cl)c2c1=O (stereo not shown) [Compound 50, 3-acetyl-8-bromo-5-chloro-2-((3-fluorobenzyl)sulfinyl)quinolin-4(1H)-one] | > 10
680 | 1660 | 950 | 850 | 1440 | 760 | 1070 | 630 | 1310 | > 2000 | > 10 | 1030 | 1240 | 1240 | 1360 | 1120 | CC(=O)c1c([S+]([O-])Cc2cc(C)on2)[nH]c2c(Br)ccc(Cl)c2c1=O (stereo not shown) [Compound 51, 3-acetyl-8-bromo-5-chloro-2-(((5-methylisoxazol-3-yl)methyl)sulfinyl)quinolin-4(1H)-one] | > 10
> 2000 | > 2000 | > 2000 | 1300 | 1470 | > 2000 | > 2000 | > 2000 | 1430 | > 2000 | > 10 | > 2000 | > 2000 | > 2000 | 1930 | 1390 | COc1cccc(C[S+]([O-])c2[nH]c3c(Br)ccc(Cl)c3c(=O)c2C(C)=O)c1 (stereo not shown) [Compound 55, 3-acetyl-8-bromo-5-chloro-2-((3-methoxybenzyl)sulfinyl)quinolin-4(1H)-one] | > 10
1500 | 1250 | 1950 | 1060 | 1660 | 1120 | 1860 | 1750 | 1020 | > 2000 | > 2 | 1550 | 1420 | 1820 | 1300 | 860 | CC(=O)c1c([S+]([O-])Cc2ccc(SC(F)(F)F)cc2)[nH]c2c(Br)ccc(Cl)c2c1=O (stereo not shown) [Compound 56, 3-acetyl-8-bromo-5-chloro-2-((4-((trifluoromethyl)thio)benzyl)sulfinyl)quinolin-4(1H)-one] | > 10
> 2000 | > 2000 | > 2000 | > 2000 | > 2000 | > 2000 | > 2000 | > 2000 | > 2000 | > 2000 | > 10 | > 2000 | > 2000 | > 2000 | > 2000 | > 2000 | CC(=O)c1c([S+]([O-])Cc2ccc([N+](=O)[O-])cc2)[nH]c2c(Cl)ccc(Cl)c2c1=O (stereo not shown) [Compound 57, 3-acetyl-5,8-dichloro-2-((4-nitrobenzyl)sulfinyl)quinolin-4(1H)-one] | > 10
1560 | > 2000 | 1990 | 1010 | 1380 | 1150 | > 2000 | > 2000 | 910 | > 2000 | > 10 | 1560 | 1490 | > 2000 | 1640 | – | COc1cc(C[S+]([O-])c2[nH]c3c(Br)ccc(Cl)c3c(=O)c2C(C)=O)cc(OC)c1 (stereo not shown) [Compound 59, 3-acetyl-8-bromo-5-chloro-2-((3,5-dimethoxybenzyl)sulfinyl)quinolin-4(1H)-one] | > 10
> 2000 | > 2000 | > 2000 | 1270 | 1630 | > 2000 | > 2000 | > 2000 | > 2000 | > 2000 | > 10 | > 2000 | > 2000 | > 2000 | 1820 | 1260 | CC(=O)c1c([S+]([O-])Cc2ccc(C(C)(C)C)cc2)[nH]c2c(Br)ccc(Cl)c2c1=O (stereo not shown) [Compound 60, 3-acetyl-8-bromo-2-((4-(tert-butyl)benzyl)sulfinyl)-5-chloroquinolin-4(1H)-one] | > 10
> 2000 | > 2000 | > 2000 | > 2000 | > 2000 | > 2000 | 1980 | > 2000 | – | > 2000 | > 10 | > 2000 | 1150 | > 2000 | 1530 | 1380 | CC(=O)c1c([S+]([O-])Cc2c(F)c(F)c(F)c(F)c2F)[nH]c2c(Br)ccc(Cl)c2c1=O (stereo not shown) [Compound 78, 3-acetyl-8-bromo-5-chloro-2-(((perfluorophenyl)methyl)sulfinyl)quinolin-4(1H)-one] | > 10

SMILES | IC50 [1, 5] [nM] | IC50 [1, 6] [nM] | IC50 [1, 7] [nM] | IC50 [1, 8] [nM] | IC50 [1, 9] [nM] | IC50 [1, 10] [nM] | IC50 [1, 11] [nM] | IC50 [1, 12] [nM] | IC50 (liver cancer cell lines) [nM] | IC50 (renal cancer cell lines) [nM] | IC50 [2] [µM] | IC50 [3, 13] [nM] | IC50 [3, 14] [nM] | IC50 [3, 15] [nM] | IC50 [3, 16] [nM] | IC50 [3, 17] [nM] | IC50 [4] [µM]
CC(=O)c1c([S+]([O-])Cc2ccc([N+](=O)[O-])cc2)[nH]c2c(Br)ccc(Cl)c2c1=O (stereo not shown) [Compound 33, 3-acetyl-8-bromo-5-chloro-2-((4-nitrobenzyl)sulfinyl)quinolin-4(1H)-one] | 1280 | > 2000 | 1770 | 1030 | 1440 | 970 | > 2000 | > 2000 | 1080 | > 2000 | > 10 | 1340 | 1630 | 1840 | 1580 | 1340 | > 10
